Where a name gives a salt, the structure may show the parent alone.
Key:
[1] = Elution of lidocaine from bone cement discs (Example 1); assay type: physicochemical; conditions: Zimmer or DePuy cement, 0.2% saline, 37° C.
Description: Forty grams of bone cement powder from each of three manufacturers: Howmedica (Simplex), Zimmer (Osteobond) and DePuy (CMW3), were mixed with 0.5, 1.0 and 2.0 g of gas-sterilized crystalline lidocaine base (Xylocaine, Astra Pharmaceuticals). The polymerization initiated mixtures were formed into discs 50 mm×1 mm and allowed to harden. The hardened discs were then placed in a stirred solution (100 ml) containing 0.2% saline at 37° C. 100 μl aliquots were taken at 1, 2, 3, 4, 6, 24, 48 and 72 hours and subjected to HPLC with electrochemical detection analysis to determine the lidocaine level in each sample.

[2] = Elution/release of anaesthetic from DePuy bone cement discs (Example 2); assay type: physicochemical; conditions: for anaesthetic released over 72 hours, percentage of amount incorporated / anaesthetic released after 72 h, percentage of amount incorporated: discs in 0.2% saline, 37° C.; for effect of particle size on release profile: crystals 75 to 150 um, 150 to 250 um, >250 um, 72 hours
Excerpt: Crystalline lidocaine base from three manufacturers (Sigma, Spectrum, and Wyckoff) was used in these studies. It was observed that the relative proportions of crystals of different size varied substantially among the three brands. Thus, an initial study compared the effect of crystal size on elution and release characteristics using Spectrum lidocaine base. Crystals were sorted using a series of molecular sieves into three groups (small, 75 to 150 um; medium, 150 to 250 um; and large, >250 um) and 2.0 g samples from each group were incorporated into bone cement and tested, as indicated below.
All studies adhered to the following procedure: Forty grams of bone cement (DePuy CMW3 unless otherwise specified) were mixed with 2.0, 0.5, 0.05, or 0.005 g of liquid or crystalline anaesthetic (lidocaine: Sigma, Spectrum, Wyckoff; prilocaine: Colour Your Enzyme, Queen's University, Kingston, Ontario, Canada). The polymerization initiated mixtures were formed into discs 50 mm×1 mm and allowed to cure. The cured discs were then placed in a solution (100 ml) containing 0.2% saline, and kept at 37° C. in a shaking water bath. 1 ml aliquots were taken at 0, 1, 2, 3, 4, 6, 24, 48 and 72 hours and to each was added 1 μg/ml bupivacaine as an internal standard. 50 μl aliquots were subjected to HPLC using a Beckman reverse phase column having a mobile phase of 40 mM ammonium phosphate:acetonitrile (60:40) and a flow rate of 1 ml/min, followed by electrochemical detection, to determine the amount of anaesthetic in each sample.
The percentage of anaesthetic released was calculated from the mass of the bone cement/anaesthetic mixture: anaesthetic (e.g., 0.05 g)+bone cement powder (40 g)+bone cement liquid (17.9 g)=57.95 g. The mean mass of bone cement discs in an individual experiment was, for example, 3.75 g, which corresponds to 15.45 discs per mixture. For elution of, for example, 1000 ug after 72 hours, 1000 ug×15.45 discs=0.015 g anaesthetic released. Since 0.05 g anaesthetic was used, 30.9% was released.

[3] = eluted from Howmedica bone cement; knee surgery of Example 3
[4] = lidocaine added to CMW3 vs CMW3
Description: Lidocaine (Xylocaine, Astra Pharmaceuticals) was combined with DePuy CMW3 bone cement as described in Example 1, and mechanical properties including dough time, setting time, exotherm, compressive strength, flexural strength, flexural modulus, and impact strength were analyzed.

[5] = 0.5, 1.0, 2.0 g per 40 g Howmedica
[6] = 2.0 g anaesthetic per 40 g DePuy CMW Endurance bone cement
[7] = 0.05 g anaesthetic per 40 g DePuy CMW3 bone cement, HCl

With CCN(CC)CC(=O)Nc1c(C)cccc1C [crystalline lidocaine base, lidocaine] the “amount eluted in relation to amount in the mixture” value [1, 5] was “proportional to the amount of lidocaine in the mixture”, the “period of maximum rate of elution” value [1, 5] was “first 24 hours” and the “time of peak dose in elution curve” value [1, 5] was ~6 h. The “period of sustained release” value ([1]; test period, Howmedica) was 72 h, the “anaesthetic released over 72 hours, percentage of amount incorporated” value ([2]; 2.0 g anaesthetic per 40 g DePuy CMW3 bone cement) was “about 1%” and the “anaesthetic released after 72 h, percentage of amount incorporated” value [2, 6] was “about 0.3%”. For the same compound, the “anaesthetic released over the 72 hour period, percentage of amount incorporated” value ([2]; 2.0 g sieved crystals, all size groups (75 to 150 um, 150 to 250 um, >250 um), DePuy CMW3) was “about 1%”, the “effect of particle size on release profile” value ([2]; DePuy CMW3) was “no effect of particle size” and the “persistence of analgesic effect” value [3] was “at least 24 hours”. For the same compound, the “time from application of bone cement to analgesic effect” value [3] was ≤ 6 h, the “effect on compressive strength, flexural strength or flexural modulus” value [4] was “little effect” and the “improvement of impact strength” value [4] was “about 10%”. The “increase of cement setting time” value [4] was “about 40%” and the “increase of doughing time, factor” value [4] was 3.

In the case of CCN(CC)CC(=O)Nc1c(C)cccc1C [liquid lidocaine HCl, lidocaine HCl], the “anaesthetic released over 72 hours, percentage of amount incorporated” value [2, 7] was 0.3%.

With CCCNC(C)C(=O)Nc1ccccc1C (centres unmarked) [liquid prilocaine base, prilocaine] the “anaesthetic released after 72 h, percentage of amount incorporated” value [2, 6] was “about 0.3%” and the “initial release of anaesthetic” value ([2]; 2.0 g in DePuy CMW3, compared with crystalline prilocaine base and both forms of lidocaine base (FIG. 4)) was “greatest”.

For CCN(CC)CC(=O)Nc1c(C)cccc1C [crystalline lidocaine HCl, lidocaine HCl], the “anaesthetic released over 72 hours, percentage of amount incorporated” value [2, 7] was “about 25%”, the “anaesthetic released over 72 hours, percentage of amount incorporated” value ([2]; 0.05 g anaesthetic per 40 g DePuy CMW3 bone cement, listed as lidocaine HCl, HCl) was “about 25%” and the “anaesthetic released over 72 hours, percentage of amount incorporated” value ([2]; 0.5 g anaesthetic per 40 g DePuy CMW3 bone cement) was “about 33%”. For the same compound, the “anaesthetic released after 72 h, percentage of amount incorporated” value ([2]; 0.5 g anaesthetic per 40 g DePuy CMW Endurance bone cement) was 23% and the “effect of particle size on release profile” value ([2]; DePuy CMW3, HCl) was “Smaller particles eluted faster”.

In the case of CCCNC(C)C(=O)Nc1ccccc1C (centres unmarked) [crystalline prilocaine base, prilocaine], the “anaesthetic released after 72 h, percentage of amount incorporated” value [2, 6] was “about 0.4%”.

Source: patent publication US6713527B2, “Anaesthetic bone cement” (Queen's University at Kingston, priority 1997, dated 2004)
